Test results published in US20080318931A1, “Treatment of Disorders and Diseases of the Colon” (priority 2004, published 2008).
“Also recorded” adds a separate entry of the source.

Assays:
[1] = tested on: Con-A activated splenocytes; experiment: cells; conditions: Mus musculus, Splenocyte, read-out: inhibition of viability, splenocytes from naïve animals
Method: (§3) LPS (manufactured by Sigma St. Louis Mo., USA, cat no L2880) was administered at 100 μg/mouse×2, on day 7 and day 14).

[2] = tested on: DSS-induced acute colitis; experiment: Rat model of DSS-induced acute colitis; assay type: in vivo; conditions: for number of days with significant DAI difference vs control: 9 days in water-treated DSS group
Method: Potential anti-IBD effect of two different doses of paroxetine, namely 0.2% and 0.4% was assessed in the rat model of DSS-induced acute colitis (DSS—dextran sulfate sodium). The use of DSS is a well-defined method for the induction of colitis' in animals. DSS can be controlled more precisely regarding molecular weight distribution, grade of sulfate incorporation and impurities than other agents typically used to achieve the same clinical end-point. This reagent model is suitable for screening of new drugs as it uses small animals, the oral administration of the agent is convenient to use in large groups of animals and the induced colitis responds to treatment with conventional drugs (see for example Axelsson et al, 1993).
Paroxetine (oral suspension, protected from light at or below 25° C.) was administered at two respective doses of 7.5 and 15 mg/kg by one daily repeated oral gavage (PO) for 16 days. Colitis induction commenced two days following initiation of treatment by continuous exposure ad libitum of the test animals to 3% DSS (36-50 kDa) in their drinking water (chlorinated and acidified, pH range of 5.1-5.9, freshly prepared on even test days). […] Two additional paroxetine-treated non-DSS induced groups were likewise treated with the same selected does to detect any unforeseen paroxetine related effects. Test groups comprised either n=8 (DSS induced) or n=4 (non-DSS induced) male Sprague Dawley (SD) rats (healthy, young […] weeks of age, total of 36 animals).
Evaluation of anti-IBD effect was based on the following […] parameters: a. Daily clinical scoring of the characteristic experimental colitis signs, consisting of body weight loss, altered fecal consistency and hematochezia and expressed as Disease Activity Index (DAI); b. Body weight determination; c. Colon length; d. Macroscopic colon lesions scores noted at necropsy; and e. microscopic colon lesions score.
The histological scoring system for the 3% DSS-induced colonic inflammation is shown below in Tables 1 and 2:
Final data evaluation was carried out by statistical analysis of differences between mean group values for each of the above listed parameters in the DSS-induced groups vs. respective mean values in the water-treated non-DSS induced group.

[3] = tested on: ConA-induced mouse splenocytes; experiment: Con-A-induced mouse splenocyte proliferation/viability, alamar blue; assay type: cell-based; conditions: 48 hr
Method: Mouse splenocytes were isolated from C57b1 healthy female mice. Cells (10,000/well) were tested under basal and ConA stimulation. Cells were treated with vehicle, dexamethasone or antidepressants (2.5-10 μM). Viability was assessed 48 hr later using alamar blue staining. (Reagents were manufactured by Wildflower, Santa Fe, N. Mex., USA.) Alamar blue assay was performed as in Nociari et al (1998).
(§1) Effect of paroxetine, (SSRI) and clomipramine (TCA) as compared to dexamethasone on Con-A-induced splenocyte proliferation (alamar blue method), and splenocyte-induced secretion of TH1 cytokines TNF-α, IL2 and INFγ, 1×10^6 cells/well, was measured 48 hours after exposure to drugs (2.5-10 μM).
In particular, mouse splenocytes were isolated from C57BL healthy female mice. Cells (10,000/well) were then exposed to Con-A (5 μM) and treated with either the vehicle, with dexamethasone or with a drug (2.5-10 μM).
Cell viability was assessed 48 hr later using Alamar blue staining. The results are presented in FIG. 4, where each point is the graph represents the mean of 4 determinations. […]. The IC50 determined for the antidepressant drugs was in the range of 2.5-5.5 μM.
Cells were treated with vehicle, or the antidepressants (2.5-20 μM). Viability was assessed 48 hours later using alamar blue staining. (Each point is the mean+/−SEM of 4 determinations).

[4] = tested on: Con-A activated splenocytes; conditions: 5 μM
Method: as §3

[5] = tested on: bcl-2; experiment: bcl-2 expression in HT29 cells, western blot; assay type: cell-based, human; conditions: 10 and 20 μM, 24 hr
Method: The effect of paroxetine and sertraline on the expression of bcl-2 and C-jun was evaluated in human colon HT29 cell-line 24 hr after drug administration, using western blot analysis for C-jun and bcl-2 and specific antibodies.

[6] = tested on: Stat3; experiment: Stat3 expression in human PHA activated lymphocytes, Western blot; assay type: cell-based; conditions: 5 μM, PHA 15 μM
Method: (§2) Total protein lysates from human lymphocyte culture were prepared by agitation with lysis buffer (20 mM Tris pH 7.5, 150 mM NaCl, 1 mM EDTA, 1% Nonidet P-40, 0.5% sodium deoxycholate, and 2 mM Na2VO4) for 1 h at 4° C. The proteins were cleared by centrifugation at 14,000×g for 20 min at 4° C. Protein concentration was determined using BCA kit (Pierce, Ill., USA). For Western blot analysis, 30 μg-protein from each sample were loaded in 7.5% SDS-PAGE. Electroblotted proteins were detected using specific anti COX-2 polyclonal antibody (Cayman chemical company, Michigan, USA) or an ti-Stat3 monoclonal antibody (Transduction Laboratories Lexington UK). Bound antibodies were visualized using chemiluminescence reaction.

[7] = tested on: Cox-2; experiment: Cox-2 expression in human PHA activated lymphocytes, Western blot; assay type: cell-based; conditions: 5 μM, PHA 15 μM
Method: as §2

[8] = tested on: Cyclooxygenase-2 (Cox-2); experiment: Cox-2 expression in ConA stimulated mouse splenocytes, Western blot; assay type: cell-based; conditions: 5 μM, normalized to actin
Method: Determination was performed using Western blot analysis and quantitative dencitometry of blot.
For each sample 2×10^7 cells were used. Cells were lysed, and equal amounts of protein was fractionated on polyacrylamide gel and then transferred to PVDF membrane. The amount of the protein was detected by immuno-blotting with […] anti-Cox-2 anti body (Murine anti COX2 Polyclonal Cat. 160126, Ann Arbor, Mich., USA. 2nd antibody conjugated to horseradish peroxidase was used and visualized with chemiluminescent Kit (Pierce, Rockford, Ill., USA) on film. Quantification of blot was performed using a densitometry apparatus (VersaDoc™ imaging system, BioRad, USA) and levels were normalized to actin.

[9] = tested on: TH1 cytokines TNF-α, IL2 and INFγ; experiment: TH1 cytokine secretion (TNF-α, IL2, INFγ) from Con-A-induced splenocytes, ELISA; assay type: cell-based, mouse; conditions: 2.5-10 μM, 48 hours, 1×10^6 cells/well
Method: as §1
Cytokines were determined in the supernatant of the splenocyte specimens using an ELISA kit and protocol (Reagents by Cytolab). […] The pattern observed resembles that of dexamethasone.

With `Fc1ccc([C@@H]2CCNC[C@H]2COc2ccc3c(c2)OCO3)cc1` [paroxetine] the cytotoxicity at 5 µM [1] was 10%, the “mean body weight vs respective control” value ([2]; both doses (7.5 and 15 mg/kg PO), DSS-induced) was “did not reach statistical significance” and the “mean colon length vs water-treated non-DSS induced group” value ([2]; both doses, p<0.05) was “significantly shorter”. The “medians of histopathological scores (lateral and in-depth extension)” value ([2]; both doses, differences not statistically significant) was “lower than for the control group”, the “day of peak DAI score” value ([2]; both paroxetine-treated DSS-induced groups) was 10 days and the “mean macroscopic colon score vs control” value ([2]; high dose) was “did not significantly differ”. The “number of days with significant DAI difference vs control” value ([2]; high paroxetine dose) was 6 days, the mortality ([2]; high-dose (15 mg/kg PO) DSS-induced group) was “No mortality” and the “mean macroscopic colon score vs control” value ([2]; low dose, p<0.01) was “significantly higher”. For the same compound, the “number of days with significant DAI difference vs control” value ([2]; low paroxetine dose) was 5 days, the “overall anti-IBD effect” value ([2]; oral suspension, 7.5 and 15 mg/kg) was “trend of anti-IBD effect with a dose-response” and the mortality ([2]; the dose paroxetine-treated DSS-induced group, n=8, PO daily 16 days) was “one”. The “ConA (mitogen)-induced splenocyte proliferation” value ([3]; 2.5-10 μM, alamar blue) was “dose dependent decrease; also recorded: dose-dependent decrease”, the “cell viability compared to dexamethasone” value ([3]; Con-A 5 μM, drug 2.5-10 μM) was “decreased cell viability to the same extent as compared to dexamethasone” and the “response of splenocytes from LPS mice treated in vivo with sertraline” value ([4]; LPS mice + sertraline 5 mg/kg×3/week two weeks) was “more responsive”. The “response of splenocytes from LPS mice” value ([4]; LPS-treated mice) was “in a manner similar to the naive animals”, the “expression of bcl-2” value [5] was “inhibition” and the “PHA-induced increase in Stat3 expression” value [6] was “antagonized”. The “PHA-induced increase in Cox-2 expression” value [7] was “antagonized”, the “reduction of Cox-2 expression” value [8] was 22.2% and the “lymphocyte-induced pro-inflammatory cytokine secretion” value [9] was “decrease”.
